Experimental data: US9884823B2, “Oxime ether acetate compound, preparation method therefor and weeding application thereof” (ZHEJIANG UNIVERSITY OF TECHNOLOGY, priority 2014, dated 2018)
Read-outs that look alike come from different tables or passages of the source.

How the values were obtained:
Cucumber = experiment: Culture dish method (general screening); type: in vivo; conditions: 100 mg/L, 7 days
From the text: (§3) Culture dish method (general screening): The test targets were radish, cucumber, rape, wheat, sorghum and barnyard grass; the seeds of wheat, sorghum and radish were germinated in advance, and the uniform emerge-germinating seeds were used in the test.

Wheat = experiment: Culture dish method (general screening); type: in vivo; conditions: 100 mg/L, 7 days
From the text: as §3

Chinese sorghum = experiment: Culture dish method (general screening); type: in vivo; conditions: 100 mg/L, 7 days
From the text: as §3

Radish = experiment: Culture dish method (general screening); type: in vivo; conditions: 100 mg/L, 7 days
From the text: as §3

Rape = experiment: Culture dish method (general screening); type: in vivo; conditions: 100 mg/L, 7 days
From the text: as §3

Barnyardgrass = experiment: Culture dish method (general screening); type: in vivo, barnyard grass; conditions: 100 mg/L, 7 days
From the text: as §3

Small quinoa = conditions: 150 g a.i./ha, 30 days, Table 9
From the text: (§1) The raw drug which was selected from the compounds in table 1 was weighed using an analytical balance (0.0001 g), and dissolved in DMF containing 1 wt % Tween-80 emulsifier to prepare a mother liquor of raw drug with a mass concentration of 1.0˜5.0%, and then diluted with distilled water, to prepare preparations at desired concentrations according to the ratio of ingredients in Examples 8, 9 and 10.
(§2) The test targets were mustard, small quinoa, Abutilon, amaranthus retroflexus, Eclipta prostrata, crabgrass, dog point. A pot with a diameter of 7.5 cm was used, filled with composite soil (garden soil:nursery matrix, 1:2, v/v) to ¾ of the pot, then the above […] kinds of weeds targets were directly seeded (germination rate ≧85%), covered with soil at a thickness of 0.2 cm. When the weeds grew to 3-leaf stage, pre-emergence soil treatment for weeds planting, and then spraying was performed.

[1] = system: grass weeds such as crabgrass, barnyard grass, dog point; conditions: 150 g a.i./ha; for activity for grass targets such as crabgrass and dog point: 30 days after administration, Table 9 summary; for activity on grass weeds such as crabgrass, dog point: postemergence spraying, 30 days
From the text: as §1, §2

[2] = system: broadleaf weeds such as mustard, small quinoa, Abutilon, Amaranthus retroflexus and Eclipta prostrate; conditions: 150 g a.i./ha; for herbicidal activity on broadleaf weeds targets: 30 days after administration, Table 9 summary; for activity on the growth of broadleaf weeds: postemergence spraying, 30 days, vs clear water control
From the text: as §1, §2

Dog point = experiment: Potted plants live body test; type: in vivo; conditions: 150 g a.i./ha, 30 days, Table 9
From the text: as §1, §2

amaranthus retroflexus = experiment: Potted plants live body test; type: in vivo; conditions: 150 g a.i./ha, 30 days, Table 9
From the text: as §1, §2

Eclipta prostrata = experiment: Potted plants live body test; type: in vivo; conditions: 150 g a.i./ha, 30 days, Table 9
From the text: as §1, §2

Abutilon = experiment: Potted plants live body test; type: in vivo; conditions: 150 g a.i./ha, 30 days, Table 9
From the text: as §1, §2

Crabgrass = experiment: Potted plants live body test; type: in vivo; conditions: 150 g a.i./ha, 30 days, Table 9
From the text: as §1, §2

Mustard = conditions: 150 g a.i./ha, 30 days, Table 9

Row | Compound | inhibition rate, Cucumber Root (Cucumber) [%] | inhibition rate, Cucumber Stem (Cucumber) [%] | inhibition rate, Wheat Root (Wheat) [%] | inhibition rate, Wheat Stem (Wheat) [%] | inhibition rate, Chinese sorghum Root (Chinese sorghum) [%] | inhibition rate, Chinese sorghum Stem (Chinese sorghum) [%] | inhibition rate, Radish Root (Radish) [%] | inhibition rate, Radish Stem (Radish) [%] | inhibition rate, Rape Root (Rape) [%] | inhibition rate, Rape Stem (Rape) [%] | inhibition rate, Barnyardgrass Root (Barnyardgrass) [%] | inhibition rate, Barnyardgrass Stem (Barnyardgrass) [%] | also measured
1 | CON=C(C(=O)OC)c1ccccc1COc1cccc(-c2ccccn2)c1 [Compound 4] | 30 | 0 | 0 | 0 | 0 | 0 | 50 | 30 | 30 | 0 | 30 | 30 | 
2 | CON=C(C(=O)OC)c1ccccc1COc1ccc(-c2ccccn2)cc1 [Compound 7] | 30 | 0 | 20 | 0 | 0 | 0 | 20 | 0 | 60 | 30 | 50 | 20 | 
3 | CON=C(C(=O)OC)c1ccccc1COc1cccc(-c2ccc(Cl)cn2)c1 [Compound 19] | 90 | 70 | 30 | 0 | 80 | 30 | 80 | 80 | 100 | 100 | 70 | 30 | efficiency, Small quinoa (Small quinoa; Postemergence spraying): 60%; efficiency, Small quinoa (Small quinoa; Pre-emergence soil treatment): 25%; activity for grass targets such as crabgrass and dog point [1]: poor activity; activity on grass weeds such as crabgrass, dog point [1]: almost have no activity; herbicidal activity on broadleaf weeds targets [2]: herbicidal activity; activity on the growth of broadleaf weeds [2]: inhibitory activity; efficiency, Dog point (Dog point; Postemergence spraying): 0%; efficiency, Dog point (Dog point; Pre-emergence soil treatment): 0%; efficiency, amaranthus retroflexus (amaranthus retroflexus; Postemergence spraying): 50%; efficiency, amaranthus retroflexus (amaranthus retroflexus; Pre-emergence soil treatment): 30%; efficiency, Eclipta prostrata (Eclipta prostrata; Postemergence spraying): 50%; efficiency, Eclipta prostrata (Eclipta prostrata; Pre-emergence soil treatment): 0%; efficiency, Abutilon (Abutilon; Postemergence spraying): 40%; efficiency, Abutilon (Abutilon; Pre-emergence soil treatment): 0%; efficiency, Crabgrass (Crabgrass; Postemergence spraying): 0%; efficiency, Crabgrass (Crabgrass; Pre-emergence soil treatment): 0%; efficiency, Mustard (Mustard; Postemergence spraying): 50%; efficiency, Mustard (Mustard; Pre-emergence soil treatment): 0%
4 | CON=C(C(=O)OC)c1ccccc1COc1ccc(-c2ccc(Cl)cn2)cc1 [Compound 27] | 60 | 0 | 50 | 0 | 50 | 0 | 50 | 20 | 50 | 50 | 60 | 30 | efficiency, Small quinoa (Small quinoa; Postemergence spraying): 60%; efficiency, Small quinoa (Small quinoa; Pre-emergence soil treatment): 25%; activity for grass targets such as crabgrass and dog point [1]: poor activity; activity on grass weeds such as crabgrass, dog point [1]: almost have no activity; herbicidal activity on broadleaf weeds targets [2]: herbicidal activity; activity on the growth of broadleaf weeds [2]: inhibitory activity; efficiency, Dog point (Dog point; Postemergence spraying): 0%; efficiency, Dog point (Dog point; Pre-emergence soil treatment): 0%; efficiency, amaranthus retroflexus (amaranthus retroflexus; Postemergence spraying): 80%; efficiency, amaranthus retroflexus (amaranthus retroflexus; Pre-emergence soil treatment): 50%; efficiency, Eclipta prostrata (Eclipta prostrata; Postemergence spraying): 80%; efficiency, Eclipta prostrata (Eclipta prostrata; Pre-emergence soil treatment): 0%; efficiency, Abutilon (Abutilon; Postemergence spraying): 60%; efficiency, Abutilon (Abutilon; Pre-emergence soil treatment): 0%; efficiency, Crabgrass (Crabgrass; Postemergence spraying): 0%; efficiency, Crabgrass (Crabgrass; Pre-emergence soil treatment): 0%; efficiency, Mustard (Mustard; Postemergence spraying): 80%; efficiency, Mustard (Mustard; Pre-emergence soil treatment): 30%
5 | CON=C(C(=O)OC)c1ccccc1COc1ccc(-c2ccc(C(F)(F)F)cn2)cc1 [Compound 32] | 0 | 0 | 0 | 0 | 0 | 0 | 80 | 50 | 80 | 80 | 0 | 0 | 
6 | CON=C(C(=O)OC)c1ccccc1COc1cccc(-c2ccnc(Cl)c2)c1 [Compound 67] | 50 | 0 | 30 | 0 | 50 | 50 | 50 | 50 | 50 | 30 | 50 | 0 | 
7 | CON=C(C(=O)OC)c1ccccc1COc1ccc(-c2ccnc(Cl)c2)cc1 [Compound 75] | 30 | 0 | 0 | 0 | 0 | 0 | 0 | 0 | 0 | 0 | 30 | 30 | 
8 | CON=C(C(=O)OC)c1ccccc1COc1cccc(-c2ncccc2C)c1 [Compound 83] | 80 | 30 | 60 | 20 | 80 | 30 | 50 | 50 | 80 | 50 | 80 | 0 | efficiency, Small quinoa (Small quinoa; Postemergence spraying): 50%; efficiency, Small quinoa (Small quinoa; Pre-emergence soil treatment): 30%; activity for grass targets such as crabgrass and dog point [1]: poor activity; activity on grass weeds such as crabgrass, dog point [1]: almost have no activity; herbicidal activity on broadleaf weeds targets [2]: herbicidal activity; activity on the growth of broadleaf weeds [2]: inhibitory activity; efficiency, Dog point (Dog point; Postemergence spraying): 0%; efficiency, Dog point (Dog point; Pre-emergence soil treatment): 0%; efficiency, amaranthus retroflexus (amaranthus retroflexus; Postemergence spraying): 20%; efficiency, amaranthus retroflexus (amaranthus retroflexus; Pre-emergence soil treatment): 20%; efficiency, Eclipta prostrata (Eclipta prostrata; Postemergence spraying): 0%; efficiency, Eclipta prostrata (Eclipta prostrata; Pre-emergence soil treatment): 0%; efficiency, Abutilon (Abutilon; Postemergence spraying): 30%; efficiency, Abutilon (Abutilon; Pre-emergence soil treatment): 0%; efficiency, Crabgrass (Crabgrass; Postemergence spraying): 0%; efficiency, Crabgrass (Crabgrass; Pre-emergence soil treatment): 0%; efficiency, Mustard (Mustard; Postemergence spraying): 0%; efficiency, Mustard (Mustard; Pre-emergence soil treatment): 0%
9 | CON=C(C(=O)OC)c1ccccc1COc1cccc(-c2cc(C)ccn2)c1 [Compound 84] | 30 | 0 | 0 | 0 | 0 | 0 | 0 | 0 | 50 | 0 | 80 | 0 | 
10 | CON=C(C(=O)OC)c1ccccc1COc1cccc(-c2ncc(Br)cc2[N+](=O)[O-])c1 [Compound 104] | 20 | 0 | 0 | 0 | 0 | 0 | 0 | 0 | 50 | 0 | 0 | 0 | 
11 | CON=C(C(=O)OC)c1ccccc1COc1cccc(-c2c(Cl)cncc2Cl)c1 [Compound 110] | 20 | 0 | 0 | 0 | 0 | 0 | 0 | 0 | 20 | 0 | 0 | 0 | 
